Data as given in ChEMBL document CHEMBL1147321, “Terpenoids from the North Adriatic Sponge Spongia officinalis” (J Nat Prod, 1989).
Converted amounts (≈) assume the structure as drawn.

assay: Toxicity against Artemia salina by lethality assay; assay type: organism-based; conditions: in vivo, read-out: LD50 (the source's name)

| Compound | LC50 [µg/mL] |
| --- | --- |
| C/C(=C\C(=O)/C=C(\C)CCCc1ccoc1)CCCc1ccoc1 | 1.6 (≈ 4.9 µM) |
| C/C(=C/C(=O)/C=C(\C)CCCc1ccoc1)CCCc1ccoc1 | 0.09 (≈ 0.276 µM) |
| C/C(=C/C(=O)/C=C(/C)CCCc1ccoc1)CCCc1ccoc1 | 0.45 (≈ 1.38 µM) |
| CC(=O)O[C@H]1C[C@H]2[C@]3(C)CCCC(C)(C)[C@H]3CC[C@]2(C)[C@H]2CC=C3CO[C@H](O)[C@H]3[C@]12C | 200 (≈ 464 µM) |
| CC(=O)O[C@H]1C[C@@H]2[C@@]3(C)CCCC(C)(C)[C@@H]3CC[C@@]2(C)[C@@H]2CCc3cocc3[C@@]12C | 180 (≈ 436 µM) |
| CC(=O)O[C@@H]1OCC2=CC[C@H]3[C@]4(C)CC[C@H]5C(C)(C)CCC[C@]5(C)[C@H]4C[C@H](OC(C)=O)[C@]3(C)[C@H]21 [DEOXOSCALARIN ACETATE] | 190 |
| C/C(=C\C(=O)C/C(C)=C/CCc1ccoc1)CCCc1ccoc1 [FUROSPONGIN 2] | 0.12 (≈ 0.368 µM) |
